Source: patent US20200016173A1 (CHINA MEDICAL UNIVERSITY, priority 2016, published 2020)

Assays:
[1] = system: human stomach gastric carcinoma (SNU-1) xenograft; assay: human-tumor xenograft in athymic nude mice; format: in vivo; details: I.P., 5-FU 5 mg/kg, Exe 100 mg/kg, 3 times/wk for 4-wks
gastric cancer = details: fluorouracil chemotherapy, GCa patients; cited from earlier work

O=c1[nH]cc(F)c(=O)[nH]1 [5-FU, fluorouracil]
tumor growth [1]: suppress | toxicity (patients with other gastrointestinal malignancies) (gastric cancer): > 50 % patients
